Here are results for 88 molecules from a melting point compilation (Tetko et al.; mined from patent text by program, amines drawn as free bases though some values may be those of a salt).

The molecule `COc1ccc(C(O)(C2CC2)C2CC2)c2c1nc1n2CCCN1c1ccc(Cl)cc1Cl` showed a melting point of 219 to 220 °C.

Take `O=c1oc(-c2c(F)cccc2F)nn1-c1ccccc1Br`: the melting point fell in the range of 111 to 114 °C.

As to `O=C(O)c1ccccc1N1C(=O)c2ccc([N+](=O)[O-])cc2C1=O`, the melting point fell in the range of 242 to 243 °C.

Molecule `CC(=O)N(C)c1cccc(OC(CCc2ccc(Cl)cc2)Cn2ccnc2)c1` (stereo not drawn) registered a melting point of 229 to 231 °C.

For `CCOc1nn(Cc2ccc(OCc3nc(-c4ccccc4)oc3C)cc2)cc1CCC(=O)O`, the melting point fell in the range of 96 to 97 °C.

Turning to `Cc1ccc2oc([N+](=O)[O-])c(-c3ccccc3)c2c1`, the melting point lay in the range of 144 to 146 °C.

In the case of `CC(C)(C)c1csc(NC(=O)c2ccn3c(=O)c(/C=C/C(=O)O)c(N4CCC(O)CC4)nc3c2)n1`, the melting point is 215 to 218 °C.

Molecule `CCCCNC(=O)NCCc1nc(-c2ccc(-c3ccccc3)cc2)c[nH]1` had a melting point of 178 °C.

Turning to `Cc1cc2c(-c3cccc(C(F)(F)F)c3)nc(C#N)nc2s1`, the melting point is 121 to 122 °C.

`COc1cc(-c2cnc3ccccc3n2)cc([N+](=O)[O-])c1O` had a melting point of 195 to 197 °C.

Turning to `C#CC1(O)C=CC2C3CCC4=CC(=O)CC(O)C4C3CCC21CC` (stereo not drawn), the melting point lay within 129 to 130 °C.

Molecule `CSc1nccc(Oc2ccc(NC(=O)OC(C)(C)C)c3ccccc23)n1` displayed a melting point of 173 to 174 °C.

`CS(=O)(=O)c1ccc(N2CC(O)(C(F)(F)F)N=C2c2ccccc2)cc1` (stereo not drawn) returned a melting point of 189 to 190 °C.

In turn, `O=[N+]([O-])c1cccnc1Nc1ccccc1` came in with a melting point of 66 to 68 °C.

In turn, `COC1([N+](=O)[O-])C=C([N+](=O)[O-])C=CC1O` (stereo not drawn) registered a melting point of 68 to 70 °C.

For `CC1(CO)OCC2(CO1)COC(C)(CO)OC2` (stereo not drawn), the melting point lay within 127 to 128 °C.

In the case of `O=C1C(=Cc2ccc([N+](=O)[O-])cc2)CCc2cc(OCCn3ccnc3)ccc21`, the melting point fell in the range of 184 to 185 °C.

Regarding `Nc1cc(C(=O)O)cc(SCc2ccccc2)c1Oc1ccccc1`, the melting point lay within 159 to 161 °C.

On to `Nc1ccccc1NC(=O)c1ccc(CNC(=O)COc2cccnc2)cc1`, for which the melting point was 154 to 155 °C.

As for `CCC(COC)n1cc(Cl)nc(N2CCc3cc(OC)c(F)c(Cl)c32)c1=O` (stereo not drawn), the melting point was in the range of 140 to 142 °C.

Molecule `Cc1cc(C[C@H](N)[C@H](O)c2ccc(F)cc2)cc(OC(F)(F)C(F)F)c1` (racemic) returned a melting point of 96 to 98 °C.

For the molecule `CCN(CC)CCNC(=O)c1c[nH]c2ccc(I)cc2c1=O`, the melting point lay in the range of 234 to 236 °C.

In turn, `Cc1oc(-c2ccc(-c3ccccc3)cc2)nc1CCOc1ccc(C[C@H](OCC(F)(F)F)C(=O)O)c2ccccc12` yielded a melting point of 199 to 200 °C.

Molecule `O=C(c1ccc(F)cc1)N1CCCC(c2nc(Oc3ccccc3)no2)C1` (stereo not drawn) had a melting point of 96 to 100 °C.

On to `Cc1nnc(NCCNC2CN3CCC2CC3)c2cc3ccccn3c12` (stereo not drawn), for which the melting point lay within 205 to 208 °C.

Molecule `CC(C)(C)C(NC(=O)CCCc1cccnc1)NC(=NC#N)Nc1cccc2ncccc12` (stereo not drawn) registered a melting point of 181 to 182 °C.

Consider `O=C(O)CC(=O)Nc1ccccc1C(=O)O`, for which the melting point lay within 171 to 173 °C.

In turn, `COC(=O)CCN(C(=O)CC(O)C(=O)O)N1CCCCC1` (stereo not drawn) had a melting point of 54 to 57 °C.

`CCCOc1nc(=O)n(C(=O)NC)s1` gave a melting point of 112 °C.

Turning to `Nc1cc(Oc2ccc(NC(=O)Nc3ccc(-c4cccnc4)c(C(F)(F)F)c3)cc2)ncn1`, the melting point lay in the range of 132 to 135 °C.

For the molecule `Cc1c(C2CCC(c3ccccc3)(N(C)C)CC2)[nH]c2ccc(O)cc12` (stereo not drawn), the melting point is 164 to 169 °C.

Molecule `O=C1c2cc(S(=O)(=O)N3CCCCC3)ccc2SC12CC2` yielded a melting point of 156 to 157 °C.

In turn, `CCc1cc(N)c(C(=O)c2ccccc2)c(C)n1` yielded a melting point of 200 to 202 °C.

For the molecule `Cc1cc(-c2cnn3c(C(F)(F)F)cc(-c4ccc(Cl)c(C)c4)nc23)ccn1`, the melting point worked out at 240 °C.

Turning to `Cc1cc2c(cc1C(=O)CO)C(C)(C)CC(C)C2(C)C` (stereo not drawn), the melting point lay in the range of 81 to 82 °C.

With `COc1ccc(C(=O)N(C(=O)c2ccc(OC)cc2)c2nc3ccc(N4CCN(C)CC4)cc3c(NCc3ccccc3)c2C#N)cc1`, the melting point was determined as 176 °C.

In turn, `COC(=O)c1nccc(N)n1` gave a melting point of 140 to 142 °C.

Regarding `CC(C)[C@H]1CC[C@H](O)C=C1S(=O)(=O)c1ccccc1`, the melting point is 105 °C.

`Cc1cc(Oc2ccccc2)c(NC(=O)OCc2ccccc2)c(=O)n1CC(=O)O` gave a melting point of 108 to 110 °C.

The molecule `N#Cc1oc2c(sc3ccccc32)c1O` had a melting point of 174 to 175 °C.

As to `CCCCCCCCCc1ccc(O)c(C=NO)c1`, the melting point is 170 °C.

In turn, `O=c1c(-c2ccccc2)c(Cn2cnc3c(Cl)ncnc32)oc2ccccc12` gave a melting point of 187 to 190 °C.

`CC(C)(O)C(=O)c1ccc(C(O)c2ccc(C(=O)C3(O)CCCCC3)cc2)cc1` (stereo not drawn) displayed a melting point of 115 to 118 °C.

Molecule `O=C1NC(=O)c2ccccc2/C1=C/Nc1ccc2ncccc2c1` displayed a melting point of 277 to 278 °C.

Molecule `CN(C)CCCCC1CCCN(CCNC(=O)N2c3ccccc3C(=O)Nc3cccnc32)C1` (stereo not drawn) came in with a melting point of 119 to 120 °C.

For `Clc1ccc(N(Cc2ccccc2)c2ccccc2)cc1`, the melting point was in the range of 94 to 95 °C.

As to `O=C1N(CO)OCCN1c1ccc(Cl)c(Cl)c1`, the melting point came to 134 °C.

Molecule `COc1ccc(C2c3cccc(O)c3C(=O)c3c(O)cccc32)c(OC)c1` had a melting point of 152 °C.

`CN(C)Cc1ccc(CSCCNc2ncc(Cc3ccn(C)c(=O)c3)c(=O)[nH]2)o1` came in with a melting point of 129 to 132 °C.

`COc1ccc(C(=O)Nc2cc(-c3c(-c4ccc(F)c(C)c4)nc4ccc(N(C)C)nn34)ccn2)cc1`: the melting point lay within 224 to 225 °C.

Turning to `Cc1ccc(S(=O)(=O)c2cc3cnc(C)nc3nc2O)cc1`, the melting point is over 200 °C.

In the case of `CC(C)(C)c1ccc(-c2cc3ccc(C(=O)O)cc3o2)cc1`, the melting point amounted to 294 °C.

As for `NS(=O)(=O)c1ccc(-c2nc(C(F)(F)F)oc2-c2ccc(Cl)cc2)cc1`, the melting point fell in the range of 167 to 168 °C.

For `C=CCOC(=O)c1ccccc1Cn1c(=O)n(S(=O)(=O)c2ccc(Cl)cc2)c(=O)c2ccc(Cl)cc21`, the melting point lay within 155 to 156 °C.

Take `O=C(O)Cc1ccc(CNC(=O)C2Cc3ccccc3N2S(=O)(=O)c2ccc(-c3cccc(C(F)(F)F)c3)cc2)c(F)c1` (stereo not drawn): the melting point was 99 to 105 °C.

Regarding `CC(=O)OCC1=C(C(=O)OC(c2ccccc2)c2ccccc2)N2C(=O)C(NC(=O)Cc3csc(-c4ncccc4O)n3)C2SC1` (stereo not drawn), the melting point was 176 to 178 °C.

The molecule `O=C(OCC(O)CO)c1cc(F)ccc1Nc1ccnc2c(C(F)(F)F)cccc12` (stereo not drawn) had a melting point of 197 to 198 °C.

Take `N#Cc1nccn1Cc1cccs1`: the melting point lay in the range of 64 to 65 °C.

The molecule `CC(C)n1cc(-c2c(-c3ccc(F)cc3)nn3ccncc23)ccc1=O` gave a melting point of 214 to 215 °C.

As for `O=C(NCc1ccncc1)Nc1cccc2ccccc12`, the melting point is 178 °C.

Take `CC1(C)CC(=C(c2ccc(O)cc2)c2ccc(CCO)cc2)CC(C)(C)C1`: the melting point is 159 to 160 °C.

On to `COc1cc2c(cc1OC)CC(=O)N(CCCCl)C=C2`, for which the melting point lay in the range of 84 to 85 °C.

`COC(=O)c1cc(C=O)cnc1C1=NC(C)(C(C)C)C(=O)N1` (stereo not drawn) came in with a melting point of 113 to 117 °C.

On to `COc1cccc2cc(CNCCNC(=O)C34CCC(CC3=O)C4(C)C)oc12` (stereo not drawn), for which the melting point lay in the range of 177 to 178 °C.

`Fc1cc(F)c2c(c1)CC(n1c(-c3nnn[nH]3)c[nH]c1=S)CC2` (stereo not drawn) yielded a melting point of 214 to 215 °C.

Take `CC1=NN(CCCn2ccnc2)Cc2cc3ccccn3c21`: the melting point fell in the range of 162 to 163 °C.

In turn, `COc1ccc(C(=O)[C@H](C)NC(=O)OCc2ccccc2)cc1` showed a melting point of 46 to 48 °C.

On to `CC12CC(c3ccc(OS(=O)(=O)C(F)(F)F)cc3)C3C4CCC5(CC4=CCC3C1CCC2=O)OCCO5` (stereo not drawn), for which the melting point fell in the range of 208 to 210 °C.

In the case of `N#CCc1ccc(CN2CCN(c3ccc(F)cc3)CC2)cc1`, the melting point lay within 111 to 113 °C.

Molecule `Cn1nc(-c2cc([N+](=O)[O-])c(Cl)cc2Cl)cc1OC(F)F` returned a melting point of 134 to 137 °C.

For `COc1nc(I)cc(C(O)Cc2ccccc2)c1C` (stereo not drawn), the melting point was 69 to 70 °C.

For `CCOn1c(CC)n[nH]c1=O`, the melting point came out at 93 °C.

As for `Cc1ccc2c(c1)NCc1ccccc1O2`, the melting point lay within 84 to 86 °C.

In the case of `O=C(Nc1cn(C2CCCCO2)nc1C(=O)NCC(O)Cc1ccccc1)c1ccccn1` (stereo not drawn), the melting point lay in the range of 132 to 134 °C.

Consider `Cc1c(Cl)ccc(S(C)(=O)=O)c1C=NO`, for which the melting point lay in the range of 164 to 168 °C.

In turn, `O=C(O)/C=C/c1nncn1-c1ccc(F)cc1` returned a melting point of 226 to 229 °C.

Molecule `COc1ccccc1C(=O)N(C)Cc1cccc(-c2ccc(CC3SC(=O)NC3=O)cc2)c1` (stereo not drawn) showed a melting point of 96 °C.

Molecule `COC(=O)C=Cc1ccc(-n2ccn(-c3ccc(C#N)cc3)c2=O)cc1` had a melting point of 210 to 212 °C.

On to `CCCCCC(=O)COS(=O)(=O)c1ccc(OCC)cc1`, for which the melting point is 35 to 35.5 °C.

Molecule `COC(=O)CCc1cc2c(s1)NC(=S)C(C)N=C2c1ccccc1Cl` (stereo not drawn) yielded a melting point of 198 to 200 °C.

`COC(=O)c1ccc(-c2nc(OC(C)=O)c(C)s2)cc1` had a melting point of 124 to 125 °C.

On to `Cc1ccc(P2(=O)c3ccccc3CN2c2ccccc2)cc1` (stereo not drawn), for which the melting point lay within 180 to 181 °C.

Molecule `Clc1ccc2c(C3=CCN(CCCOc4cccc5[nH]ccc45)CC3)c[nH]c2c1Cl` had a melting point of 224 to 227 °C.

Consider `COC(=O)c1cc(-c2ccc(F)c(C)c2)nn(CC=Cc2ccc(Cl)cc2)c1=O`, for which the melting point was in the range of 138 to 139 °C.

For `Cn1c(=O)ccc2cc(COc3cccc(C4(C#N)CCOCC4)c3)ccc21`, the melting point is 149 to 150 °C.

With `O=C(O)CC(NC(=O)c1ccc2c(c1)CCC(=NNC1=NCCN1)C1=C2CCC1)c1cccnc1` (stereo not drawn), the melting point was 126 to 128 °C.

Consider `CCCC(=O)OCC(=O)c1ccc(-c2ccccc2)cc1`, for which the melting point stood at 82 °C.

For `CCCNC(=O)NCc1cccc2c1CN(C1CCC(=O)NC1=O)C2=O` (stereo not drawn), the melting point was 298 to 300 °C.
